We go through 1 molecule from patent US20210189330A1, “INDUCED TOTIPOTENT STEM CELLS AND METHODS FOR MAKING AND USING THE SAME” (THE J. DAVID GLADSTONE INSTITUTES, A TESTAMENTARY TRUST …, priority 2017, published 2021).

For this data set, the system named is mEpiSCs. Briefly: mEpiSC conversion culture in first conversion media with Smad inhibitor. As to conditions: 1 μM on Day 0, 3 μM from Days 1-3; observed Conversion Day 1. The class given is cell-based, mouse. How it is done: Under the conditions tested, the conversion bias toward floating iBCs was less efficient; therefore, more cells were required than for the 3D hemispheres (discussed in example above) in order to observe or harvest iBCs. It is contemplated that optimization of timing and Smad inhibition may vary depending on the cell type used. […] Two phases of media were prepared and cells were fed from days 0-3 (“first conversion media”) and then days 4-7 (“second conversion media”), respectively.
At Conversion Day 0, approximately 14 hours after preparation of mEpiSCs for conversion, cells were observed as evenly dispersed, mostly single cells. The first conversion media was prepared using CTSFES media with Pen/Strep and 2-Mercaptoethanol described above as the base media and supplemented with BMP4 (10 ng/mL), SB431542 (1 μM on Day 0, 3 μM from Days 1-3), and AA (64 μg/mL). On Conversion Day 1, cells were observed growing with some cells remaining colony-like while others began to flatten at the edges. (FIG. 4). […] At approximately the same time each day, media was replaced and cells were incubated overnight at 37° C.

As for `NC(=O)c1ccc(-c2nc(-c3ccc4c(c3)OCO4)c(-c3ccccn3)[nH]2)cc1` [SB431542], the “toxicity to starting mEpiSCs” value was “toxicity was also believed to be killing some cells”.
